# Read-outs that look alike come from different tables or passages of the source.
# Tested on: panel of human cell lines
# Test: In vitro proliferation assay, Cell Titer Glo, two doubling times, 298 cell lines
# Assay type: cell-based
# Conditions: Homo sapiens, read-out: ABS_IC50_VALUE
# Description: Cell Titer Glo measures ATP, thus the IC50s represent both the effect on purine production and cell proliferation, which are related. […] Folates are actively taken up in cells by reduced folate carrier (SLC19A1), proton-coupled folate transporter (SLC46A1), and the FOLR1 folate receptor[17]. Once inside the cell, folates are trapped by polyglutamation catalyzed by folylpolyglutamate synthetase (FPGS). […] Gene expression data for ATIC, GART, APRT, HPRT, FOLR1, SLC19A1, SLC46A1 & FPGS are shown in Fig. 2, since these genes were anticipated to predict sensitivity. […] The MDA-MB-231 cell line is reduced folate carrier (SLC19A1) negative due to epigenetic silencing.
# Cells were cultured using recommended culture conditions unless noted otherwise (Supplemental Table 3). Cells were plated, dosed with compound and incubated at 37 °C for approximately 2 doubling times as determined for each cell line. Cell Titer Glo (Promega) assay was used to measure proliferation according to manufacturer’s recommendations by measuring luminescence with Flexstation3 (Molecular Devices) with 500 ms integration time. […] The % response was fit to a four-parameter logistic equation using ACTIVITYBASE 4.0 to determine the absolute IC50 values.
# Cell Lines: Cell lines of adrenal gland, autonomic ganglia, biliary tract, blood ALL, blood AML, blood CML, blood hodgkin lymphoma, blood lymphoma, blood multiple myeloma, blood NHL, blood RAEB, bone, breast ER+, breast fibroblast, breast fibroblast mixed, breast HER2, breast normal, breast triple negative, cervix, CNS, endometrium, eye, fibroblast normal, kidney ns, kidney renal, large intestine, liver, liver normal, lung adenocarcinoma, lung ns, lung NSCLC, lung NSCLC mixed, lung SCLC, lung squamous, melanoma, melanoma normal, esophagus adenocarcinoma, esophagus ns, esophagus squamous, ovary, pancreas adenocarcinoma, pancreas ductal carcinoma, pancreas ns, pleura mesothelioma, prostate adenocarcinoma, prostate small cell, salivary gland, small intestine, soft tissue, stomach, testis, thyroid, thyroid squamous, umbilical vein endothelial cell normal, upper aerodigestive tract squamous, urinary tract ns, urinary tract transitional cell carcinoma, and vulva squamous origin were obtained from ATCC, CASTCC, CLS, DSMZ, ECACC, HSRRB, ICLC, JCRB, NCI, Riken and SNU cell banks. The murine A9 cell line was acquired from the ATCC (CCL-1.4).
structure (smiles),measurement,setting,value
"O=c1[nH]ccc2cc(F)c(NS(=O)(=O)c3ccc(N4CC[C@@H](O)C4)s3)cc12 [LSN3213128, N-(6-Fluoro-1-oxo-1,2-dihydroisoquinolin-7-yl)-5-[(3R)-3-hydroxypyrrolidin-1-yl]thiophene-2-sulfonamide]",IC50,"NCI-H661, NCI-H661, lung",16.2 µM
same,IC50,"NCI-H716, NCI-H716, large intestine",1.34 µM
same,IC50,"NCI-H929, NCI-H929, haematopoietic and lymphoid tissue",> 20 µM
same,IC50,"NCI-H1048, NCI-H1048, lung",> 20 µM
same,IC50,"NCI-H1092, NCI-H1092, lung",> 20 µM
same,IC50,"NCI-H1105, lung",> 20 µM
same,IC50,"NCI-H1155, NCI-H1155, lung",13.6 µM
same,IC50,"NCI-H1299, NCI-H1299, lung",1.32 µM
same,IC50,"NCI-H1341, lung",2.83 µM
same,IC50,"NCI-H1355, NCI-H1355, lung",> 20 µM
same,IC50,"NCI-H1395, NCI-H1395, lung",12.6 µM
same,IC50,"NCI-H1435, NCI-H1435, lung",> 20 µM
same,IC50,"NCI-H1437, NCI-H1437, lung",1.37 µM
same,IC50,"NCI-H1573, NCI-H1573, lung",> 20 µM
same,IC50,"NCI-H1581, NCI-H1581, lung",16.5 µM
same,IC50,"NCI-H1618, lung",> 20 µM
same,IC50,"NCI-H1623, NCI-H1623, lung",> 20 µM
same,IC50,"NCI-H1648, NCI-H1648, lung",> 20 µM
same,IC50,"NCI-H1650, NCI-H1650, lung",8.18 µM
same,IC50,"NCI-H1651, NCI-H1651, lung",> 20 µM
same,IC50,"NCI-H1666, NCI-H1666, lung",> 20 µM
same,IC50,"NCI-H1694, NCI-H1694, lung",> 20 µM
same,IC50,"NCI-H1703, NCI-H1703, lung",> 20 µM
same,IC50,"NCI-H1734, NCI-H1734, lung",> 20 µM
same,IC50,"NCI-H1781, NCI-H1781, lung",> 20 µM
same,IC50,"NCI-H1792, NCI-H1792, lung",8.57 µM
same,IC50,"NCI-H1793, NCI-H1793, lung",> 20 µM
same,IC50,"NCI-H1836, NCI-H1836, lung",2.47 µM
same,IC50,"NCI-H1838, NCI-H1838, lung",> 20 µM
same,IC50,"NCI-H1876, lung",> 20 µM
same,IC50,"NCI-H1930, NCI-H1930, lung",17.8 µM
same,IC50,"NCI-H1944, NCI-H1944, lung",> 20 µM
same,IC50,"NCI-H1975, NCI-H1975, lung",2.15 µM
same,IC50,"NCI-H2009, NCI-H2009, lung",> 20 µM
same,IC50,"NCI-H2023, NCI-H2023, lung",> 20 µM
same,IC50,"NCI-H2029, NCI-H2029, lung",> 20 µM
same,IC50,"NCI-H2030, NCI-H2030, lung",8.19 µM
same,IC50,"NCI-H2052, NCI-H2052, pleura",> 20 µM
same,IC50,"NCI-H2066, NCI-H2066, lung",> 20 µM
same,IC50,"NCI-H2081, NCI-H2081, lung",> 20 µM
same,IC50,"NCI-H2085, lung",> 20 µM
same,IC50,"NCI-H2087, NCI-H2087, lung",> 20 µM
same,IC50,"NCI-H2122, NCI-H2122, lung",1.22 µM
same,IC50,"NCI-H2126, NCI-H2126, lung",> 20 µM
same,IC50,"NCI-H2170, NCI-H2170, lung",13.7 µM
same,IC50,"NCI-H2171, NCI-H2171, lung",> 20 µM
same,IC50,"NCI-H2227, lung",> 20 µM
same,IC50,"NCI-H2228, NCI-H2228, lung",7.07 µM
same,IC50,"NCI-H2286, NCI-H2286, lung",17.6 µM
same,IC50,"NCI-H2347, NCI-H2347, lung",> 20 µM
same,IC50,"NCI-H2405, NCI-H2405, lung",> 20 µM
same,IC50,"NCI-H2452, NCI-H2452, pleura",> 20 µM
same,IC50,"NCI-N87, NCI-N87, stomach",2.39 µM
same,IC50,"NCI-SNU-5, stomach",> 20 µM
same,IC50,"NCI-SNU-16, stomach",1.18 µM
same,IC50,"NH-6, autonomic ganglia",> 20 µM
same,IC50,"NMC-G1, central nervous system",> 20 µM
same,IC50,"NOMO-1, NOMO-1, haematopoietic and lymphoid tissue",2.03 µM
same,IC50,"NUGC-3, NUGC-3, stomach",11.9 µM
same,IC50,"NUGC-4, NUGC-4, stomach",8.38 µM
same,IC50,"OCUM1, OCUM-1, stomach",16.5 µM
same,IC50,"OE19, OE19, oesophagus",6.52 µM
same,IC50,"OE33, OE33, oesophagus",12.7 µM
same,IC50,"ONS-76, ONS-76, central nervous system",3.6 µM
same,IC50,"OVCAR-3, OVCAR-3, ovary",12.7 µM
same,IC50,"OVMANA, ovary",2.59 µM
same,IC50,"P31-FUJ, haematopoietic and lymphoid tissue",0.71 µM
same,IC50,"PC-3, prostate",> 20 µM
same,IC50,"PF-382, PF-382, haematopoietic and lymphoid tissue",2.13 µM
same,IC50,"Panc 04.03, Panc 04.03, pancreas",5.44 µM
same,IC50,"Pfeiffer, haematopoietic and lymphoid tissue",2.55 µM
same,IC50,"QGP-1, QGP-1, pancreas",10.7 µM
same,IC50,"RD, soft tissue",9.13 µM
same,IC50,"RD-ES, bone",8.54 µM
same,IC50,"REH, haematopoietic and lymphoid tissue",6.9 µM
same,IC50,"RERF-LC-MS, lung",1.92 µM
same,IC50,"RKN, ovary",> 20 µM
same,IC50,"RKO, large intestine",8.04 µM
same,IC50,"RL95-2, RL95-2, endometrium",> 20 µM
same,IC50,"RL, haematopoietic and lymphoid tissue",0.76 µM
same,IC50,"RMG-I, ovary",> 20 µM
same,IC50,"RPMI-7951, RPMI-7951, skin",> 20 µM
same,IC50,"RPMI-8226, RPMI-8226, haematopoietic and lymphoid tissue",12.6 µM
same,IC50,"RT4, urinary tract",> 20 µM
same,IC50,"RT112/84, RT112/84, urinary tract",1.92 µM
same,IC50,"Raji, haematopoietic and lymphoid tissue",7.5 µM
same,IC50,"Rec1, REC-1, haematopoietic and lymphoid tissue",> 20 µM
same,IC50,"SCC-4, SCC-4, upper aerodigestive tract",> 20 µM
same,IC50,"SCC-9, SCC-9, upper aerodigestive tract",> 20 µM
same,IC50,"SCC-15, SCC-15, upper aerodigestive tract",> 20 µM
same,IC50,"SCC-25, SCC-25, upper aerodigestive tract",> 20 µM
same,IC50,"SH-10-TC, stomach",> 20 µM
same,IC50,"SJRH30, SJRH30, soft tissue",5.13 µM
same,IC50,"SJSA-1, SJSA-1, bone",> 20 µM
same,IC50,"SK-BR-3, SK-BR-3, breast",6.52 µM
same,IC50,"SK-CO-1, SK-CO-1, large intestine",12.8 µM
same,IC50,"SK-ES1, SK-ES-1, bone",> 20 µM
same,IC50,"SK-HEP1, SK-HEP-1, liver",11.1 µM
same,IC50,"SK-LMS-1, SK-LMS-1, soft tissue",0.91 µM
same,IC50,"SK-LU-1, SK-LU-1 (lung, adenocarcinoma)",> 20 µM
same,IC50,"SK-MEL3, SK-MEL-3 (skin, malignant melanoma)",> 20 µM
same,IC50,"SK-MEL-2, SK-MEL-2 (skin, malignant melanoma)",> 20 µM
same,IC50,"SK-MEL-5, SK-MEL-5 (skin, melanoma)",> 20 µM
same,IC50,"SK-MEL-24, SK-MEL-24 (skin, malignant melanoma)",> 20 µM
same,IC50,"SK-MEL-28, SK-MEL-28 (skin, malignant melanoma)",0.47 µM
same,IC50,"SK-MEL-31 (skin, malignant melanoma)",> 20 µM
same,IC50,"SK-MES-1, SK-MES-1 (lung; squamous cell carcinoma)",2.25 µM
same,IC50,"SK-N-AS, SK-N-AS (brain, neuroblastoma)",> 20 µM
same,IC50,"SK-OV-3, SK-OV-3 (ovary, adenocarcinoma)",> 20 µM
same,IC50,"SNB-19, SNB19 (central nervous system, Glioblastoma)",0.79 µM
same,IC50,"SNG-M (endometrium, endometrial adenocarcinoma)",> 20 µM
same,IC50,"SNU-182, SNU-182 (liver, hepatocellular carcinoma)",20.7 µM
same,IC50,"SNU-216, SNU-216 (stomach, Human gastric carcinoma)",> 20 µM
same,IC50,"SNU-387, SNU-387 (liver, pleomorphic hepatocellular carcinoma)",27 µM
same,IC50,"SNU-398, SNU-398 (liver, hepatocellular carcinoma)",16.4 µM
same,IC50,"SNU-423, SNU-423 (liver, pleomorphic hepatocellular carcinoma)",21.7 µM
same,IC50,"SNU-449, SNU-449 (liver, hepatocellular carcinoma)",11.3 µM
same,IC50,"SNU-475, SNU-475 (liver, hepatocellular carcinoma)",24.8 µM
same,IC50,"SNU-C1, SNU-C1 (large intestine, colon, adenocarcinoma)",4.55 µM
same,IC50,"SNU-C2A (large intestine, cecum, colorectal carcinoma)",> 20 µM
same,IC50,"SW48, SW48 (large intestine, colon, colorectal adenocarcinoma)",6.86 µM
same,IC50,"SW480, SW480 (large intestine, colon, colorectal adenocarcinoma)",1.97 µM
same,IC50,"SW837, SW837 (large intestine, rectum, adenocarcinoma)",1.28 µM
same,IC50,"SW1271, SW 1271 (lung; small cell lung carcinoma)",10.4 µM
same,IC50,"SW1353, SW 1353 (bone, chondrosarcoma)",> 20 µM
same,IC50,"SW1417, SW1417 (large intestine, colon, colorectal adenocarcinoma)",> 20 µM
same,IC50,"SW1463, SW1463 (large intestine, rectum, colorectal adenocarcinoma)",15.1 µM
same,IC50,"SW-620, SW620 (large intestine, colon, adenocarcinoma)",> 20 µM
same,IC50,"T84 (large intestine, colon, colorectal carcinoma)",> 20 µM
same,IC50,"T98G, T98G (central nervous system, glioblastoma multiforme)",3.62 µM
same,IC50,"TCC-SUP, TCCSUP (urinary bladder, transitional cell carcinoma)",4.2 µM
same,IC50,"TE-1 (oesophagus, esophageal squamous cell carcinoma)",1.08 µM
same,IC50,"TE-5 (oesophagus, esophageal squamous cell carcinoma)",4.79 µM
same,IC50,"TE-9 (oesophagus, esophageal squamous cell carcinoma)",1.17 µM
same,IC50,"TE-11, TE-11 (oesophagus, esophageal squamous cell carcinoma)",2.02 µM
same,IC50,"TE-15, TE-15 (oesophagus, esophageal squamous cell carcinoma)",0.73 µM
same,IC50,"THP-1, THP-1 (haematopoietic and lymphoid tissue, leukemia, acute monocytic)",5.52 µM
same,IC50,"TOV21G, TOV-21G (ovary, clear cell carcinoma)",> 20 µM
same,IC50,"TT (thyroid, carcinoma)",10.6 µM
same,IC50,"Toledo, Toledo (haematopoietic and lymphoid tissue, diffuse large cell lymphoma)",> 20 µM
same,IC50,"U-251, U251 (central nervous system, human glioma)",3.02 µM
same,IC50,"U-266, U-266 (haematopoietic and lymphoid tissue, myeloma; plasmacytoma)",13.4 µM
same,IC50,"UACC-812, UACC-812 (breast, ductal carcinoma)",> 20 µM
same,IC50,"UMUC3, UM-UC-3 (urinary bladder, transitional cell carcinoma)",1.93 µM
same,IC50,"VCaP, VCaP (prostate, prostate cancer)",7.74 µM
same,IC50,"VMRC-RCZ (kidney, renal cancer)",7.61 µM
same,IC50,"WM 266-4, WM-266-4 (skin, melanoma)",> 20 µM
same,IC50,"WM-115, WM-115 (skin, malignant melanoma)",> 20 µM
same,IC50,"ZR-75-30, ZR-75-30 (breast, ductal carcinoma)",> 20 µM
